{"source": "patent US20040097574A1", "about": "“Glucocorticoid mimetics, methods of making them, pharmaceutical compositions, and uses thereof” (Boehringer Ingelheim Pharmaceuticals, Inc., priority 2002, published 2004)", "key": {"[1]": {"biological_target": "T1, human glucocorticoid receptor (GR) complex (Homo sapiens, UniProt P04150)", "T1 construct": "made in house; host or cells: insect expression system (baculovirus lysate)", "T1 sequence (P04150 1-777)": "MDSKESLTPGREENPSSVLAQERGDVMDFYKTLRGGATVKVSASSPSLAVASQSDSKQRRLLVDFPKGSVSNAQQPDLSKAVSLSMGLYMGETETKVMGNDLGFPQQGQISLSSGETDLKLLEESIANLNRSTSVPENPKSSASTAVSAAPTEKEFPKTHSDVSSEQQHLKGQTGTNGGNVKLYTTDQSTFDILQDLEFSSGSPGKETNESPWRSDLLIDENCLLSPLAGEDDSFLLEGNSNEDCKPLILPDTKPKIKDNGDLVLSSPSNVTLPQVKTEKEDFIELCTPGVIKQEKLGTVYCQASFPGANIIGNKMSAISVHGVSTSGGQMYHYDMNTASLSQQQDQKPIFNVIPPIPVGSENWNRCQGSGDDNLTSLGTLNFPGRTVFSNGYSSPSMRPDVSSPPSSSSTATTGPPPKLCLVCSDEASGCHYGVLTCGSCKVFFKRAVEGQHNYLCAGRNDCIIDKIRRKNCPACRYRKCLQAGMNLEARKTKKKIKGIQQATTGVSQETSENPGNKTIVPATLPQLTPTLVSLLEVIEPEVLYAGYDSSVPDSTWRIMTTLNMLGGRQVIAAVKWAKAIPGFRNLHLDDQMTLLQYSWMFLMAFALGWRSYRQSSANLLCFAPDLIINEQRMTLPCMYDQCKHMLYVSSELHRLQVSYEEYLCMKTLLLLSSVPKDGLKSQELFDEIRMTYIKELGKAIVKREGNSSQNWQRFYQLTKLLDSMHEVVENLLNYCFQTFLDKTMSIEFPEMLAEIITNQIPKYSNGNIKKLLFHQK", "test": "Glucocorticoid receptor competitive binding assay (fluorescence polarization)", "details": "competition with TAMRA-labeled dexamethasone; read-out: potent activity in the GR binding assay (IC50)", "experimental": "Compounds of the invention were evaluated for binding to the steroid receptor by a fluorescence polarization competitive binding assay. Detailed descriptions for preparation of recombinant glucocorticoid receptor (GR) complex used in the assay is described in U.S. Patent Application Publication No. US 2003/0017503, filed May 20, 2002, and the corresponding U.S. provisional application No. 60/291,877, filed May 18, 2001, each of which is incorporated herein by reference in its entirety. Preparation of the tetramethyl rhodamine (TAMRA)-labeled dexamethasone probe was accomplished using a standard literature procedure (M. Pons et al., J. Steroid Biochem., 1985, 22, pp. 267-273).\nA. Glucocorticoid Receptor Competitive Binding Assay\nStep 1. Characterization of the Fluorescent Probe\nThe wavelengths for maximum excitation and emission of the fluorescent probe should first be measured. An example of such a probe is rhodamine (TAMRA)-labeled dexamethasone.\nThe affinity of the probe for the steroid receptor was then determined in a titration experiment. The fluorescence polarization value of the probe in assay buffer was measured on an SLM-8100 fluorometer using the excitation and emission maximum values described above. Aliquots of expression vector lysate were added and fluorescence polarization was measured after each addition until no further change in polarization value was observed. Non-linear least squares regression analysis was used to calculate the dissociation constant of the probe from the polarization values obtained for lysate binding to the probe.\nStep 2. Screening for Inhibitors of Probe Binding\nThis assay uses fluorescence polarization (FP) to quantitate the ability of test compounds to compete with tetramethyl rhodamine (TAMRA)-labeled dexamethasone for binding to a human glucocorticoid receptor (GR) complex prepared from an insect expression system. The assay buffer was: 10 mM TES, 50 mM KCl, 20 mM Na2MoO4.2H2O, 1.5 mM EDTA, 0.04% w/v CHAPS, 10% v/v glycerol, 1 mM dithiothreitol, pH 7.4. Test compounds were dissolved to 1 mM in neat DMSO and then further diluted to 10x assay concentration in assay buffer supplemented with 10% v/v DMSO. Test compounds were serially diluted at 10x assay concentrations in 10% DMSO-containing buffer in 96-well polypropylene plates. Binding reaction mixtures were prepared in 96-well black Dynex microtiter plates by sequential addition of the following assay components to each well: 15 μL of 10x test compound solution, 85 μL of GR-containing baculovirus lysate diluted 1:170 in assay buffer, and 50 μL of 15 nM TAMRA-labeled dexamethasone. Positive controls were reaction mixtures containing no test compound; negative controls (blanks) were reaction mixtures containing 0.7 μM to 2 μM dexamethasone. The binding reactions were incubated for 1 hour at room temperature and then read for fluorescence polarization in the LJL Analyst set to 550 nm excitation and 580 nm emission, with the Rhodamine 561 dichroic mirror installed. IC50 values were determined by iterative non-linear curve fitting of the FP signal data to a 4-parameter logistic equation."}, "[2]": {"test_system": "glucocorticoid receptor function", "test": "Glucocorticoid receptor function, one or more of the above assays (agonist/antagonist/modulator activity)", "format": "cell-based", "details": "in one or more of the above assays", "experimental": "B. Glucocorticoid Receptor Cell Assays\n1. Induction of Aromatase in Fibroblasts (Cell Assay for Transactivation)\nDexamethasone, a synthetic ligand to the glucocorticoid receptor (GR), induces expression of aromatase in human foreskin fibroblast cells. The activity of aromatase is measured by the conversion of testosterone to estradiol in culture media.\nOn the day of the experiment, the media in the wells is replaced with fresh media. Cells are treated with test compounds to final concentrations of 10^−5 M to 10^−8 M, and testosterone to a final concentration of 300 ng/mL. Each well has a total volume of 100 μL. Samples are made in duplicates. Control wells include: (a) wells that receive testosterone only, and (b) wells that receive testosterone plus 2 μM of dexamethasone to provide maximum induction of aromatase. Plates are incubated at 37° C. overnight (15 to 18 hours), and supernatants are harvested at the end of incubation. […] The amount of estradiol is inversely proportional to the ELISA signals in each well. The extent of aromatase induction by test compounds is expressed as a relative percentage to dexamethasone. EC50 values of test compounds are derived by non-linear curve fitting.\n2. Inhibition of IL-6 Production in Fibroblasts (Cell Assay for Transrepression)\nHuman foreskin fibroblast cells produce IL-6 in response to stimulation by pro-inflammatory cytokine IL-1.\nOn the next day, media in the wells is replaced with fresh media. Cells are treated with IL-1 (rhIL-1α, R&D Systems Cat. No. 200-LA) to a final concentration of 1 ng/mL, and with test compounds to final concentrations of 10^−5 M to 10^−8 M, in a total volume of 200 μL per well. Samples are done in duplicates. […] Positive control wells receive IL-1 only and represent maximum (or 100%) amount of IL-6 production. Plates are incubated at 37° C. overnight (15 to 18 hours), and supernatants are harvested at the end of incubation. IL-6 levels in the supernatants are determined by the ELISA kits for IL-6 (MedSystems Diagnostics GmbH, Vienna, Austria, Cat. No. BMS213TEN) according to manufacture's instructions. The extent of inhibition of IL-6 by test compounds is expressed in percentage relative to positive controls. IC50 values of test compounds are derived by non-linear curve fitting.\nEvaluation of agonist or antagonist activity of compounds binding to the glucocorticoid receptor may be determined by any of the assays.\n3. Modulation of Tyrosine Aminotransferase (TAT) Induction in Rat Hepatoma Cells\nTesting of compounds for agonist or antagonist activity in induction of tyrosine aminotransferase (TAT) in rat hepatoma cells.\nH4-II-E-C3 cells were incubated overnight in 96 well plates (20,000 cells/100 μL/well) in MEM medium containing 10% heat inactivated FBS and 1% nonessential amino acids. On the next day, cells were stimulated with the indicated concentrations of dexamethasone or test compound (dissolved in DMSO, final DMSO concentration 0.2%) for 18 hours. Control cells were treated with 0.2% DMSO. After 18 hours, the cells were lysed in a buffer containing 0.1% Triton X-100 and the TAT activity was measured in a photometric assay using tyrosine and alpha-ketoglutarate as substrates.\nFor measuring antagonist activity, the hepatoma cells were pre-stimulated by addition of dexamethasone (concentration ranges from 3×10^−9 M to 3×10^−8 M) shortly before the test compound was applied to the cells.\n4. Modulation of MMTV-Luc Induction in HeLa Cells\nTesting of compounds for agonist or antagonist activity in stimulation of MMTV-(mouse mammary tumor virus) promoter in HeLa cells.\nCells were cultured overnight in DMEM medium without phenol red, supplemented with 3% CCS (charcoal treated calf serum) and then transferred to 96 well plates (15,000 cells/100 μL/well)."}}, "data": [{"compound": "CCC(Cc1c[nH]c2ccccc12)NS(=O)(=O)c1c(Cl)cc(Cl)cc1Cl", "note": "(centres unmarked) [2,4,6-Trichloro-N-[1-(1H-indol-3-ylmethyl)propyl]benzenesulfonamide]", "values": [{"measurement": "IC50", "setting": "[1]", "value": "≤ 0.1", "unit": "µM"}]}, {"compound": "CC(Cc1c[nH]c2ccccc12)NS(=O)(=O)c1c(Cl)cc(Cl)cc1Cl", "note": "(centres unmarked) [2,4,6-Trichloro-N-[2-(1H-indol-3-yl)-1-methylethyl]benzenesulfonamide]", "values": [{"measurement": "IC50", "setting": "[1]", "value": "≤ 0.1", "unit": "µM"}, {"measurement": "activity as antagonists of the glucocorticoid receptor function", "setting": "[2]", "value": "activity as antagonists"}]}, {"compound": "CC(Cc1c[nH]c2ccccc12)NS(=O)(=O)c1c(Cl)cccc1Cl", "note": "(centres unmarked) [2,6-Dichloro-N-[2-(1H-indol-3-yl)-1-methylethyl]benzenesulfonamide]", "values": [{"measurement": "activity as antagonists of the glucocorticoid receptor function", "setting": "[2]", "value": "activity as antagonists"}]}, {"compound": "Cc1cccc(Cl)c1S(=O)(=O)NC(C)Cc1c[nH]c2ccccc12", "note": "(centres unmarked) [2-Chloro-N-[2-(1H-indol-3-yl)-1-methylethyl]-6-methylbenzenesulfonamide]", "values": [{"measurement": "activity as antagonists of the glucocorticoid receptor function", "setting": "[2]", "value": "activity as antagonists"}]}, {"compound": "CC(Cc1c[nH]c2ccccc12)NS(=O)(=O)c1c(Cl)sc(Cl)c1Br", "note": "(centres unmarked) [4-Bromo-2,5-dichlorothiophene-3-sulfonic acid [2-(1H-indol-3-yl)-1-methylethyl]amide]", "values": [{"measurement": "IC50", "setting": "[1]", "value": "≤ 0.1", "unit": "µM"}, {"measurement": "activity as antagonists of the glucocorticoid receptor function", "setting": "[2]", "value": "activity as antagonists"}]}, {"compound": "CCC(Cc1c[nH]c2ccccc12)NS(=O)(=O)c1c(C)cc(C)cc1C", "note": "(centres unmarked) [N-[1-(1H-Indol-3-ylmethyl)propyl]-2,4,6-trimethylbenzenesulfonamide]", "values": [{"measurement": "IC50", "setting": "[1]", "value": "≤ 0.1", "unit": "µM"}]}, {"compound": "CC(Cc1c[nH]c2ccccc12)NS(=O)(=O)c1c(C(C)C)cc(C(C)C)cc1C(C)C", "note": "(centres unmarked) [N-[2-(1H-Indol-3-yl)-1-methylethyl]-2,4,6-triisopropylbenzenesulfonamide]", "values": [{"measurement": "IC50", "setting": "[1]", "value": "≤ 0.1", "unit": "µM"}, {"measurement": "activity as antagonists of the glucocorticoid receptor function", "setting": "[2]", "value": "activity as antagonists"}]}, {"compound": "Cc1cc(C)c(S(=O)(=O)NC(C)Cc2c[nH]c3ccccc23)c(C)c1", "note": "(centres unmarked) [N-[2-(1H-Indol-3-yl)-1-methylethyl]-2,4,6-trimethylbenzenesulfonamide]", "values": [{"measurement": "IC50", "setting": "[1]", "value": "≤ 0.1", "unit": "µM"}, {"measurement": "activity as an agonist of the glucocorticoid receptor function", "setting": "[2]", "value": "activity as an agonist"}]}, {"compound": "Cc1cc(C)c(S(=O)(=O)NC(C)Cc2c[nH]c3ccc(F)cc23)c(C)c1", "note": "(centres unmarked) [N-[2-(5-Fluoro-1H-indol-3-yl)-1-methylethyl]-2,4,6-trimethylbenzenesulfonamide]", "values": [{"measurement": "IC50", "setting": "[1]", "value": "≤ 0.1", "unit": "µM"}]}, {"compound": "Cc1cc(C)c(S(=O)(=O)NC(C)Cc2c[nH]c3cc(F)ccc23)c(C)c1", "note": "(centres unmarked) [N-[2-(6-Fluoro-1H-indol-3-yl)-1-methylethyl]-2,4,6-trimethylbenzenesulfonamide]", "values": [{"measurement": "IC50", "setting": "[1]", "value": "≤ 0.1", "unit": "µM"}]}]}
